Literature values, collected in US20250129429A1, “GENE FUSIONS IN SARCOMA” (Foundation Medicine, Inc., priority 2021, published 2025).
One block for each molecule: values may come before it.

What was measured:
TrkB = TrkB (Homo sapiens, UniProt Q16620)
[1] = tested on: various solid tumors with NTRK fusions; settings: monotherapy; adult and pediatric patients, with and without CNS metastases
[2] = tested on: NTRK fusion-positive AML cell lines
[3] = tested on: NTRK1 fusion-positive tumors; settings: patients with NTRK1 fusion-positive tumors
[4] = tested on: various solid tumors harboring NTRK fusions
TrkA = TrkA (Homo sapiens, UniProt P04629)
NGF dimer = NGF dimer (Homo sapiens, UniProt P01138); settings: binds the NGF dimer
Sequence of NGF dimer (P01138 122-241): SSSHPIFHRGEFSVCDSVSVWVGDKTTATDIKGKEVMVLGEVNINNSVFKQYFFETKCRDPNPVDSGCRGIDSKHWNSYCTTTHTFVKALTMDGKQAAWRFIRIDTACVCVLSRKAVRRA

Sequence of TrkA (P04629 33-796): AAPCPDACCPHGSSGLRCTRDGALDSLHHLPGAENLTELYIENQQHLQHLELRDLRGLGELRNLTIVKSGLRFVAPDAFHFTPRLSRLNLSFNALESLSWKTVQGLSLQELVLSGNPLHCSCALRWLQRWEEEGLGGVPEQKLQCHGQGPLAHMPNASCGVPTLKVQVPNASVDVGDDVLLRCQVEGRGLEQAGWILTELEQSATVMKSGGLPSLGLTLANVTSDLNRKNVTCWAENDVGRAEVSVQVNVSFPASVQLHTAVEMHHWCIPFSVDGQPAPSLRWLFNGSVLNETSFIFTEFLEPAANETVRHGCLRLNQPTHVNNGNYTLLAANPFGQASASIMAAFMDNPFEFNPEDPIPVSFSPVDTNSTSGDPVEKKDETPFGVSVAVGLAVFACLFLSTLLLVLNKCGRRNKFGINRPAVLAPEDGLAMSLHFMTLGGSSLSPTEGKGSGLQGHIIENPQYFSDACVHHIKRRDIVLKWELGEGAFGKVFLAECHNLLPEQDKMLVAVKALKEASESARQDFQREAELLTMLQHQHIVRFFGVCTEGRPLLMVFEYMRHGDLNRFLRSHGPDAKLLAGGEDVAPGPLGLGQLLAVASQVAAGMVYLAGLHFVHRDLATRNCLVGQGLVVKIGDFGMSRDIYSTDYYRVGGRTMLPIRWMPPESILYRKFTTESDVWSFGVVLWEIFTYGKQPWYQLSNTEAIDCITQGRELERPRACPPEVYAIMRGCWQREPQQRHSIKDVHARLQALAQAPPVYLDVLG
Sequence of TrkB (Q16620 32-822, species assumed): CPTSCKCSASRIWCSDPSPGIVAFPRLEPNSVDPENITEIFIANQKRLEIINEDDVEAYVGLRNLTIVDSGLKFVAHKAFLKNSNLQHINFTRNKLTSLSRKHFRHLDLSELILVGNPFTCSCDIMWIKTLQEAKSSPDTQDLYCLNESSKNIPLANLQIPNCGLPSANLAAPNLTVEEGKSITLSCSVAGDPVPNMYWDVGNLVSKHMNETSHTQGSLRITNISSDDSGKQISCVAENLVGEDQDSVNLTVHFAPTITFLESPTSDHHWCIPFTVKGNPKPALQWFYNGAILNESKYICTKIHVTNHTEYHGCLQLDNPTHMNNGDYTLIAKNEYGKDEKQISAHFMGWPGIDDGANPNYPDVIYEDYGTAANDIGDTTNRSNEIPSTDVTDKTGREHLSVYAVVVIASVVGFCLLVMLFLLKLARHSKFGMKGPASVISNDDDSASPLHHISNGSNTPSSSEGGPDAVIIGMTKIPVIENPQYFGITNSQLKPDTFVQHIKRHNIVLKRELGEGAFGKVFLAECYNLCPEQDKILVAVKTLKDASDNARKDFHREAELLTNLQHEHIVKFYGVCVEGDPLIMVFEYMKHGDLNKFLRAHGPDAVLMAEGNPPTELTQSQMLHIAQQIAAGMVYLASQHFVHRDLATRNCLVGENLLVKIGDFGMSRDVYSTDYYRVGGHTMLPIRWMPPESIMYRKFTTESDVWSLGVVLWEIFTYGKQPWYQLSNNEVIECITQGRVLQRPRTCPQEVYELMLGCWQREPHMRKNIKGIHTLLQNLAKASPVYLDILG

Compound: CC(C)Oc1cc(Nc2nc(N[C@@H](C)c3ccc(F)cn3)ncc2Cl)n[nH]1 [AZ-23, 5-chloro-N-[(1S)-1-(5-fluoropyridin-2-yl)ethyl]-N′-(5-propan-2-yloxy-1H-pyrazol-3-yl)pyrimidine-2,4-diamine]
- IC50 (TrkB): 8 nM

Compound: CN1CCN(c2ccc(C(=O)Nc3n[nH]c4ccc(Cc5cc(F)cc(F)c5)cc34)c(NC3CCOCC3)c2)CC1 [entrectinib, N-[5-(3,5-Difluorobenzyl)-1H-indazol-3-yl]-4-(4-methyl-1-piperazinyl)-2-(tetrahydro-2H-pyran-4-ylamino)benzamide]
- clinical benefit [1]: Clinical benefit with entrectinib monotherapy has been achieved
- preclinical sensitivity [2]: preclinical sensitivity has been observed

Compound: C[C@@H](Oc1cc(-c2cnn(C3CCNCC3)c2)cnc1N)c1c(Cl)ccc(F)c1Cl [crizotinib]
- clinical responses [3]: Durable clinical responses

Compound: O=C(Nc1cnn2ccc(N3CCC[C@@H]3c3cc(F)ccc3F)nc12)N1CC[C@H](O)C1 [larotrectinib]
- CR ([4]; adult and pediatric patients with solid tumors harboring NTRK fusions): 17 % of patients
- ORR ([4]; adult and pediatric patients with various solid tumors harboring NTRK fusions (88/109)): 81%
- responses ongoing ([4]; at 12 months of treatment): 75-81 % of patients
- intracranial efficacy ([4]; individuals with NTRK fusion-positive gliomas or brain metastases): has been demonstrated

- IC50 (TrkA): < 1 nM
Compound: NC(=O)Nc1snc(S[C@@H]2CCCCc3ccccc32)c1C(N)=O [isothiazole 5n]

- IC50 (TrkA): 6 nM
Compound: c1ccc2c(c1)[nH]c1c3cccnc3ccc21 [pyridocarbazole]

- Kd (NGF dimer): ~1000 nM
Compound: Cc1cc2nc3c(=O)[nH]c(=O)nc-3n(C)c2cc1C=O [Ro 08-2750]
